In ChEMBL document CHEMBL4419163, “Assays for identifying compounds that modulate bitter taste” (2014) one finds Activity data, which are given here for 3 compounds.

What all share (assay type): functional, cell-based
The target in test [1] is T1, Taste receptor type 2 member 19 (Homo sapiens) (UniProt P59542).
T1 sequence (whole entry): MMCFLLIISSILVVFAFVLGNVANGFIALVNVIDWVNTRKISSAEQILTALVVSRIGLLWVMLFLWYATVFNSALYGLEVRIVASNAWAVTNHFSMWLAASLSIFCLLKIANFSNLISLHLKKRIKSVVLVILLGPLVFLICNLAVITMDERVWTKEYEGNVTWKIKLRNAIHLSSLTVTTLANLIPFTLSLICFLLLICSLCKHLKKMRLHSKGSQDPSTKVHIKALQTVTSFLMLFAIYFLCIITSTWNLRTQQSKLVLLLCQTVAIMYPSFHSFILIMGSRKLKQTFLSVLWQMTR
As to the kind of experiment: Agonist activity at human TAS2R48 expressed in HEK293T cells co-expressing Galpha15 assessed as increase in intracellular calcium level at 20 mM by Calcium-3 dye based fluorescence assay relative to control. On the technique in general: A change in cytosolic calcium serves as a functional read-out for many receptors and channels.

The target in test [2] is T2, Taste receptor type 2 member 38 (Homo sapiens) (UniProt P59533).
T2 sequence (whole entry): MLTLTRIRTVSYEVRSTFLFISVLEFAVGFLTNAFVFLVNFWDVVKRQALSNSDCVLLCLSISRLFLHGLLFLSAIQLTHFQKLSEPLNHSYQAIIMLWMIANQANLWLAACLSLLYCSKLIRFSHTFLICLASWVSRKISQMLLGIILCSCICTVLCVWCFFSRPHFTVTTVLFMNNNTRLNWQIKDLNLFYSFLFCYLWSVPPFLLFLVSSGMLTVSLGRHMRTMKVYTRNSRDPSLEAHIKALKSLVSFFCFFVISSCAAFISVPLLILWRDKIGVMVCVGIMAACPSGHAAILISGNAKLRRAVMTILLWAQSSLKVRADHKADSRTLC
As to the kind of experiment: Agonist activity at human TAS2R38 expressed in HEK293T cells co-expressing Galpha15 assessed as increase in intracellular calcium level at 20 mM by Calcium-3 dye based fluorescence assay relative to control.

In test [3] the target is T3, Taste receptor type 2 member 41 (Homo sapiens) (UniProt P59536).
T3 sequence (whole entry): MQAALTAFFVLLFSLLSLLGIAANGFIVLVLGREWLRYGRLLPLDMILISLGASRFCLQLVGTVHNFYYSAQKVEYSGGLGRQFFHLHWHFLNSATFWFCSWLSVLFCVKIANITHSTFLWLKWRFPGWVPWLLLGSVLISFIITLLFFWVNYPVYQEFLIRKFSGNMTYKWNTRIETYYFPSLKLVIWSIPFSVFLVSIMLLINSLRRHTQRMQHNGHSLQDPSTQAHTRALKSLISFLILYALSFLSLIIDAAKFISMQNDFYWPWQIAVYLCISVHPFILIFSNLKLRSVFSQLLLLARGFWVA
As to the kind of experiment: Agonist activity at human TAS2R41 expressed in HEK293T cells co-expressing Galpha15 assessed as increase in intracellular calcium level at 20 mM by Calcium-3 dye based fluorescence assay relative to control.

Test [4] addresses T4, Taste receptor type 2 member 20 (Homo sapiens) (UniProt P59543).
T4 sequence (whole entry): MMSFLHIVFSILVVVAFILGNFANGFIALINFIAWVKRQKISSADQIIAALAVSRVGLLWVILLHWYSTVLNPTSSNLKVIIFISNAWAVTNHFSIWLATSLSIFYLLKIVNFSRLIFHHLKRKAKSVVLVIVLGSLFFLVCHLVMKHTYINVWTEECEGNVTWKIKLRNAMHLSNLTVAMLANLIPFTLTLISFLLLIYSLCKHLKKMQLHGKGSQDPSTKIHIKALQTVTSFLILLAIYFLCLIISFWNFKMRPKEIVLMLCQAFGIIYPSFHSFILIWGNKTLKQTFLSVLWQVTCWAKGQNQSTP
As to the kind of experiment: Agonist activity at human TAS2R49 expressed in HEK293T cells co-expressing Galpha15 assessed as increase in intracellular calcium level at 20 mM by Calcium-3 dye based fluorescence assay relative to control.

Test [5] has as its target T5, Taste receptor type 2 member 5 (Homo sapiens) (UniProt Q9NYW4).
T5 sequence (whole entry): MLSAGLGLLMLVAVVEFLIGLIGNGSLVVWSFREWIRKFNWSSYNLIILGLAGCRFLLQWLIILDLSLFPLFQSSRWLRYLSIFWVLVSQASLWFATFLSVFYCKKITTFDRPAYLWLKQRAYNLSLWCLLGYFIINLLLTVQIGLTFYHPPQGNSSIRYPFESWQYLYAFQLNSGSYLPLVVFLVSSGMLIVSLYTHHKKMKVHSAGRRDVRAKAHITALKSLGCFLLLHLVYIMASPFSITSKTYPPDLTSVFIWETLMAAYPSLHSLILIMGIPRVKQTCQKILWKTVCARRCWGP
The experiment in a line: Agonist activity at human TAS2R5 expressed in HEK293T cells co-expressing Galpha15 assessed as increase in intracellular calcium level at 20 mM by Calcium-3 dye based fluorescence assay relative to control.

Test [6] deals with T6, Taste receptor type 2 member 43 (Homo sapiens) (UniProt P59537).
T6 sequence (whole entry): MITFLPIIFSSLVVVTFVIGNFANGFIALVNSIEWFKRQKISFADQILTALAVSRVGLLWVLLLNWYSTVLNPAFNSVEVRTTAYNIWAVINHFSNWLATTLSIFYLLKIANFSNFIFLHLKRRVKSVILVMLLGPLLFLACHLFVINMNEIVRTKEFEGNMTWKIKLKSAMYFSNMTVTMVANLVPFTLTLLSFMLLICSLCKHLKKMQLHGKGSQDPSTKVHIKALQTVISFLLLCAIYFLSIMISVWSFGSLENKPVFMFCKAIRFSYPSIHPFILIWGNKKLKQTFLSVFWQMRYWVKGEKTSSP
As to the kind of experiment: Agonist activity at human TAS2R43 expressed in HEK293T cells co-expressing Galpha15 assessed as increase in intracellular calcium level at 20 mM by Calcium-3 dye based fluorescence assay relative to control.

The target of test [7] is T7, Taste receptor type 2 member 13 (Homo sapiens) (UniProt Q9NYV9).
T7 sequence (whole entry): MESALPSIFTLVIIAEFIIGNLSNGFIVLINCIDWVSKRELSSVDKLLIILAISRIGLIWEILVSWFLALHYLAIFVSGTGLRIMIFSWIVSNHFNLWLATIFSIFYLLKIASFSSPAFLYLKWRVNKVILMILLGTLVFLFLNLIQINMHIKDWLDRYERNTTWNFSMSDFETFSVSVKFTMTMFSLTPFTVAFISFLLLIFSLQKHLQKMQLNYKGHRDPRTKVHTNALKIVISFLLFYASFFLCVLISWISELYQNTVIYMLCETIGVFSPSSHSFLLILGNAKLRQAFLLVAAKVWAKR
As to the kind of experiment: Agonist activity at human TAS2R13 expressed in HEK293T cells co-expressing Galpha15 assessed as increase in intracellular calcium level at 20 mM by Calcium-3 dye based fluorescence assay relative to control.

SMILES strings stand for the structures.

As for `CC1=CC(=O)NS(=O)(=O)O1`, the Activity in test [1], in test [2], in test [3], in test [4], in test [5] and in test [6] was under 40% each time. Besides, the Activity in test [7] was over 40%.
For `[Cl-].[K+]` [POTASSIUM CHLORIDE], the Activity in test [1], in test [2], in test [3], in test [4], in test [5] and in test [6] was under 40% throughout. In addition, in test [7], the Activity was over 40%.
For `CC(O)C(=O)[O-].[K+]` (stereo unspecified), the Activity in test [1], in test [2], in test [3], in test [4], in test [5] and in test [6] was under 40% each time. Also, in test [7], the Activity was over 40%.
